Key:
[1] = femurs, 3D μCT, castrated male mice
Experimental: (§1) To exploit this pathway we used B6CBAF1/J hybrid male mice reported to be susceptible to ADA. As a control and to remove background testosterone effects all the B6CBAF1/J hybrid male mice were castrated and split into two groups (n=6). The first group served as controls (Vehicle) and the second experimental group was treated with 5-α-dihydrotestosterone (5α-DHT). The 5α-DHT was administered by sub-dermal transplantation of slow release pellets purchased from Innovative Research of America. The control group was also transplanted with identically formulated placebo pellets (without 5α-DHT). Both pellets were transplanted below the right ear using a small incision that was sealed with staples. Specifically, two 21 day release and one 90 day release pellets containing 10 mg of 5α-DHT respectively were used for each experimental mouse with corresponding placebo pellets for the controls (n=6). Hair loss of the mice and the effects of 5α-DHT were then monitored over 5 months as described below.

hair loss = conditions: castrated male mice
Experimental: as §1

[2] = castrated male mice
Experimental: as §1
FIGS. 8A-8B includes DEXA analysis pictures of representative Vehicle and 5α-DHT male castrated mice showing increased bone and lean mass with treated mice. […] Two-way ANOVA analysis of the temporal weight change show significant differences for 5α-DHT treatment (p<0.0001) and change over time (p<0.0001) with no significant interaction (n=6). This confirms 5α-DHT pellet infusion was effective (see also below).
Detailed quantitative analyses of the DEXA experiments are presented graphically in FIG. 9. […] Total and femur analyses are shown and the numbers shown on the histograms above the asterisks (*) are p values calculated using a two-tailed unpaired t test at 95% confidence intervals. A P<0.05 is considered significant and NS indicates not significant.

hair density = conditions: hair plucked from defined ROI, castrated male mice, vs placebo
Source text: A second method was then used to directly quantitate hair density, hair quality and vellus hair occurrence. Specifically, mice were sacrificed and the pelts removed and fixed in buffered formalin for histology. Also, a plastic template with a fixed portal was used to demarcate a defined and identical region of interest (ROI) between the ears and above the shoulder blades (FIG. 12). Hair was then plucked from this region weighed and microscopically analyzed. […] A plastic template with portal removed was used to facilitate hair removal from defined region of interest (ROI). Top pictures comparing control (right) and experimental (left) hairs removed from the ROI. […] The numbers shown on the histograms above the asterisk (*) is the p value calculated using a two-tailed unpaired t test at 95% confidence intervals. A P<0.05 is considered significant.

C[C@]12CCC(=O)C[C@@H]1CC[C@@H]1[C@@H]2CC[C@]2(C)[C@@H](O)CC[C@@H]12 [5α-DHT, 5-α-dihydrotestosterone]
cancellous bone and trabecular architecture at the top of the epiphyses [1]: major increases
hair loss from head and shoulder blade region (inverse integrated pixel density) (hair loss; 5 months, inflection point after 2 months): accelerated hair loss
hair at the pellet implant site (hair loss; photographs, vs placebo pellet): major hair loss
Bone Mineral Content [BMC] ([2]; DEXA, vs placebo pellets): major increases
Bone mineral Density [BMD] ([2]; DEXA, vs placebo pellets): major increases
lean mass ([2]; DEXA, vs vehicle): increased
lean/fat mass ratios ([2]; DEXA, vs vehicle): increased
weight ([2]; sub-dermal slow release pellets, 5 months, vs placebo pellets): major increases
hair density, size and quality (hair density): significantly reduced
